Assay results published in patent US20210346354A1, “MACROPINOCYTOSIS IN CANCER” (Memorial Sloan-Kettering Cancer Center, priority 2015, published 2021).
Numbered stars: 1 amine (or outer) side, 2 acyl side, 3 side chain; on linkers, the order of the positions; unused ones are H or OH. Bridge positions count the residues as written; N and C are the ends. Square brackets hold non-standard residues; d marks the D form. Peptide text beside a SMILES is read from it. I, II: the chains in the order shown. Actinocin(9to1) = Cc1c2oc3c(C)ccc(C(=O)[*:1])c3nc-2c(C(=O)[*:2])c(N)c1=O; NMeV = CN[C@H](C(=O)O)C(C)C; Sar = CNCC(=O)O

Key:
K-Ras^G12D MEFs [1] = experiment: Proliferation assay (cell numbers) of K-Ras^G12D MEFs in starvation medium; assay type: cell-based, mouse
Description: (§1) Cell culture experiments were performed at 37° C. and 5% CO2 in DMEM/F12 with 10% dialyzed FBS (molecular weight cut-off 10,000; Gemini Biosystems), 100 U/mL penicillin, 100 μg/mL streptomycin, 5 mM glucose and 2 mM glutamine. For proliferation assays, MEFs were plated in complete medium, 5 h later briefly rinsed and then cultured in starvation medium as indicated. For EAA titration experiments, EAAs were supplemented at indicated percentages of 1×MEM amino acid solution (M5550, Sigma). Cancer cell lines were cultured in complete medium for 1 day prior to starvation. Numbers of adherent cells, which are >95% viable as assessed by Trypan Blue exclusion were determined using a Multisizer 4 Coulter Counter (Beckman). For mTOR activation and localization experiments, cells were rinsed and then incubated in EAA starvation medium (DMEM/F12 lacking all amino acids except glutamine) for 1 h, and subsequently placed in medium supplemented with EAAs (1×MEM amino acid solution), albumin (3%, if not stated otherwise) or fresh EAA-free starvation medium for indicated periods of time.

wild type MEFs = experiment: Proliferation assay (cell numbers) of wild type MEFs in starvation medium; assay type: cell-based, mouse
Description: as §1

mTORC1 = mTORC1 re-activation after 1 h EAA starvation, Western blotting against phosphorylated S6K1; assay type: cell-based, mouse; details: for albumin-dependent mTORC1 activation: 3% albumin
Description: Cells were rinsed with ice-cold PBS and detached from culture plates by incubation with ice-cold trypsin (0.05%). Trypsin was inactivated with ice-cold serum, cells pelleted and rinsed with ice cold PBS. Cells were lysed in ice-cold lysis buffer [50 mM HEPES, pH 7.4, 40 mM […], 2 mM EDTA, 1 mM Na Orthovandanate, 50 mM NaF, 10 mM Na Pyrophosphate, 10 mM Na Glycerophosphate, 1% Triton X-100, 1×Halt protease and phosphatase inhibitor cocktails (Thermo Scientific)] for 15 min, and soluble lysate fractions isolated by centrifugation at 16,000 g for 10 min. Protein concentrations were determined with the Pierce BCA Protein Assay (Thermo Scientific) and equal amounts of proteins analyzed by SDS gel electrophoresis and Western blotting following standard protocols.
as §1
Cells can sense EAAs through the mTORC1 pathway, which integrates amino acid levels with inputs from growth factor signaling to promote cell growth (Ma and Blenis, 2009; Shimobayashi and Hall, 2014). When cells are placed in EAA-free medium, the ability of mTORC1 to phosphorylate downstream targets is repressed. To test if catabolism of extracellularly provided proteins could restore mTORC1 activity in the absence of EAAs, mTORC1 was inactivated by subjecting MEFs to 1 h EAA starvation. Fresh medium containing EAAs or different concentrations of albumin was then added and mTORC1 re-activation assessed by Western blotting against phosphorylated S6K1.

mTOR = experiment: Lysosomal recruitment of mTOR, immunofluorescence against mTOR and LAMP2; assay type: cell-based, mouse; details: K-Ras^G12D MEFs
Description: For immunostainings, cells were rinsed with ice-cold PBS, fixed with 4% formaldehyde in PBS for 15 min and permeabilized with 0.05% Triton X-100 in PBS. After rinsing with PBS, cells were blocked with PBG (0.5% BSA, 0.2% cold water fish gelatin in PBS) for 30 min, incubated with primary antibodies in PBG for 1.5 h, washed two times with PBG+4% normal goat serum and then incubated with secondary antibodies in PBG+4% NGS for 45 min. After three washes with PBS, cells were mounted on microscope slides with Prolong Antifade+DAPI and imaged using a Leica TCS SP5-II.
as §1, with “For mTOR activation and localization experiments, cells were rinsed and then incubated in EAA starvation medium (DMEM/F12 lacking all amino acids except glutamine) for 1 h, and subsequently placed in medium supplemented with EAAs (1×MEM amino acid solution), albumin (3%, if not stated otherwise) or fresh EAA-free starvation medium for indicated periods of time.” left out

[2] = system: wild type and heterozygous K-Ras^G12D MEFs; experiment: Cell numbers of wild type and K-Ras^G12D MEFs in medium lacking nutrients ±3% albumin; assay type: cell-based, mouse; details: for cell viability: 3% albumin supplementation
Description: The dashed line indicates starting cell numbers. # below detection limit. *p<0.05, ** p<0.01, ***p<0.001. […] Data are represented as mean±STDEV (n=3).
as §1
To investigate whether activation of K-Ras signaling altered a cell's ability to metabolize extracellular proteins, we compared immortalized mouse embryonic fibroblasts (MEFs) harboring wild type K-Ras or a constitutively active K-Ras^G12D allele. Albumin is the major protein in plasma and interstitial fluids, its levels ranging from 2-5%. To mimic the protein-rich composition of extracellular fluids, culture medium was therefore supplemented with 10% dialyzed fetal bovine serum ±3% albumin.

K-Ras^G12D MEFs [3] = experiment: Lysosomal degradation of DQ-BSA (fluorescence dequenching) in K-Ras^G12D MEFs; assay type: cell-based, mouse; details: for torin 1-induced increase in DQ-BSA fluorescence when transcription is blocked: 5 μg/ml actinomycin D or 1 μM triptolide, 30 min pre-treatment, 6 h DQ-BSA
Description: For live imaging, medium was supplemented with 0.3 mg/ml DQ Green BSA. 1 h prior to imaging, 50 nM LysoTracker Red and 0.2 μg/ml Hoechst were added. Cells were imaged either immediately after addition of DQ-BSA and torin 1, or after 5-6 h incubation using a Zeiss LSM 5 LIVE.
To characterize how cells derive leucine from extracellular proteins, cellular albumin uptake was investigated using constitutively fluorescent albumin and intracellular albumin proteolysis using a self-quenched albumin that emits fluorescence upon degradation (DQ-BSA) (Reis et al., 1998). […] It was then determined whether lysosomal albumin degradation was required to support growth during leucine starvation. […] Ras GTPases can promote cellular uptake of macromolecules through macropinocytosis (Bar-Sagi and Feramisco, 1986). […] To investigate whether this endocytic pathway contributed to albumin-dependent growth, cells were treated with the Na^+/H^+ exchange inhibitor EIPA, which blocks macropinocytosis but not other endocytic pathways (West et al., 1989).
To distinguish these possibilities, it was first tested whether mTORC1 inhibition increased internalization of extracellular macromolecules. […] It was next examined whether mTORC1 inhibition affected lysosomal degradation of internalized proteins.

[4] = background statement; cited from earlier work
[5] = EAAs at 5% of the levels in complete medium, 3% albumin
[6] = 3% albumin after 1 h EAA starvation
[7] = K-Ras^G12D MEFs, inhibitor added at onset of starvation

Molecule: albumin: bovine serum albumin (A1470, Sigma) added to medium as extracellular protein nutrient
- cell proliferation (K-Ras^G12D MEFs [1]; [5]): significant increase in proliferation
- cell proliferation (K-Ras^G12D MEFs [1]; leucine-free medium containing 3% albumin, several consecutive days): able to sustain proliferation
- albumin concentration at which proliferation could be sustained (K-Ras^G12D MEFs [1]; low-EAA medium (5% EAAs)): at least 1%
- proliferation rate (K-Ras^G12D MEFs [1]; low-EAA medium, albumin concentration raised to 3%): increased progressively
- cell numbers (K-Ras^G12D MEFs [1]; medium lacking glutamine, 3% albumin supplementation): increase in cell numbers, albeit to a minor extent
- cell viability (K-Ras^G12D MEFs [1]; medium lacking isoleucine, lysine, or arginine, physiological levels of albumin (3%)): rescued cell viability
- survival and proliferation (wild type MEFs; [5]): improved survival of wild type MEFs, but did not support their proliferation
- cell viability (wild type MEFs; low-EAA medium, increasing albumin levels (1-3%)): improved viability
- time after which mTORC1-dependent phosphorylation resumed (mTORC1; [6]): 2 h
- time to maximal levels of mTORC1-dependent phosphorylation (mTORC1; [6]): 4 h
- S6K1 phosphorylation (mTORC1; wild type and K-Ras^G12D MEFs, EAA-free medium with 1-3% albumin): concentration-dependent increase in S6K1 phosphorylation
- subcellular localization of mTOR (mTOR; 1 h EAA starvation, then 3% albumin): localized to punctate structures that were marked by the lysosomal membrane protein LAMP2
- cell proliferation ([2]; glucose-free medium ±3% albumin): ceased to proliferate, regardless of the presence of 3% albumin
- cell survival ([2]; medium lacking all essential amino acids (EAAs), 3% albumin): striking rescue of cell survival
- cell viability ([2]; non-essential amino acid (NEAA) starvation): modestly improved viability
- cell viability ([2]; starved for leucine): completely restored

Molecule: Cc1c2oc3c(C)ccc(C(=O)N[C@@H]4C(=O)N[C@H](C(C)C)C(=O)N5CCC[C@H]5C(=O)N(C)CC(=O)N(C)[C@@H](C(C)C)C(=O)O[C@@H]4C)c3nc-2c(C(=O)N[C@@H]2C(=O)N[C@H](C(C)C)C(=O)N3CCC[C@H]3C(=O)N(C)CC(=O)N(C)[C@@H](C(C)C)C(=O)O[C@@H]2C)c(N)c1=O [actinomycin D] (I: T[dV]P[Sar][NMeV] / II: T[dV]P[Sar][NMeV]; ester I:1-I:C, II:1-II:C; linker I:N-II:N via Actinocin(9to1))
- torin 1-induced increase in DQ-BSA fluorescence when transcription is blocked (K-Ras^G12D MEFs [3]): unaffected

Molecule: CCN(c1nc(N)c(C(=O)NC(=N)N)nc1Cl)C(C)C [EIPA]
- cell proliferation (K-Ras^G12D MEFs [1]; EIPA treatment with free leucine added to culture medium): restored
- cell proliferation (K-Ras^G12D MEFs [1]; leucine-free medium +3% albumin, 25 μM EIPA, day 3): strongly decreased
- albumin-dependent mTORC1 activation (mTORC1; [7]): strongly reduced

Molecule: C=C1[C@@H](C)[C@H]2[C@H](Cc3ccccc3)NC(=O)[C@]23[C@H](OC(C)=O)/C=C/[C@@](C)(O)C(=O)[C@@H](C)C/C=C/[C@H]3[C@@H]1O [cytochalasin D]
- albumin-dependent mTORC1 activation (mTORC1; [7]): strongly reduced

Molecule: CC(C)[C@]12O[C@H]1[C@@H]1O[C@]13[C@]1(O[C@H]1C[C@H]1C4=C(CC[C@@]13C)C(=O)OC4)[C@@H]2O [triptolide]
- torin 1-induced increase in DQ-BSA fluorescence when transcription is blocked (K-Ras^G12D MEFs [3]): unaffected

Molecule: CCN(CC)CCCC(C)Nc1ccnc2cc(Cl)ccc12 (centres unmarked) [chloroquine]
- DQ-BSA degradation in torin 1-treated cells (K-Ras^G12D MEFs [3]; 250 nM torin 1 plus 20 μM chloroquine or protease inhibitors, 6 h): abrogated DQ-BSA degradation

Molecule: C/C1=C\[C@H](C)C[C@H](C)OC(=O)C[C@H](c2ccc(O)cc2)NC(=O)[C@@H](Cc2c(Br)[nH]c3ccccc23)N(C)C(=O)[C@H](C)NC(=O)[C@@H](C)C1 [jasplakinolide]
- albumin-dependent mTORC1 activation (mTORC1; [7]): strongly reduced

Molecule: CO/C1=C\C(C)=C\[C@@H](C)[C@@H](O)[C@@H](C)C/C(C)=C/C=C/[C@H](OC)[C@@H]([C@@H](C)[C@@H](O)[C@H](C)[C@@]2(O)C[C@@H](O)[C@H](C)[C@@H](C(C)C)O2)OC1=O [bafilomycin A1]
- albumin-dependent mTORC1 activation (mTORC1; [7]): strongly suppressed
- mTORC1 activation by EAAs (mTORC1; [7]): did not perturb
- movement of mTOR to lysosomal membranes in response to albumin (mTOR; 200 nM bafilomycin A1 added at onset of EAA starvation): completely blocked

Molecule: Oc1ccc2ccccc2c1SSc1c(O)ccc2ccccc12 [IPA-3]
- albumin-dependent mTORC1 activation (mTORC1; [7]): strongly reduced

Molecule: CO[C@H]1C[C@@H]2CC[C@@H](C)[C@@](O)(O2)C(=O)C(=O)N2CCCC[C@H]2C(=O)O[C@H]([C@H](C)C[C@@H]2CC[C@@H](O)[C@H](OC)C2)CC(=O)[C@H](C)/C=C(\C)[C@@H](O)[C@@H](OC)C(=O)[C@H](C)C[C@H](C)/C=C/C=C/C=C/1C [rapamycin]
- stability [4]: not very stable
